The record followed here is patent US20110190365A1, “Insecticidal 4-phenyl-1H-pyrazoles” (Bayer Crop Science AG, priority 2008, published 2011).

The data set is described as follows: log P by HPLC on a reversed-phase column (C18), EEC Directive 79/831 Annex V.A8. Format: physicochemical. On the procedure:
The stated log P values were determined in accordance with EEC Directive 79/831 Annex V.A8 by HPLC (High Performance Liquid Chromatography) using a reversed-phase column (C18).

Where [1] appears, read: HCOOH, Table 4, compounds of formula I-A-Q4.
[2] abbreviates: HPLC, reversed-phase C18, mobile phase with formic acid.

In the case of `CCc1nn(-c2ccc(C(=O)NCC(F)(F)C(F)F)c(C)c2)c(N)c1-c1ccc(Cl)cc1` [I-A-Q2-339], under “HCOOH”, the “log P (HCOOH)” value is recorded as “I-A-Q2-339: log P (HCOOH): 3.27”.

Turning to `Cc1cc(-n2nc(C(F)(F)F)cc2N)ccc1C(=O)NCC(F)(F)C(F)F` [XI-A-088], the “log P (HCOOH)” value (HCOOH) was “XI-A-088: log P (HCOOH): 2.63”.

Regarding `N#Cc1cc(-n2nc(C(F)(F)F)c(-c3cc(Cl)cc(Cl)c3)c2N)ccc1S(=O)(=O)NCC(F)(F)F` [I-A-Q4-123], the “log P (HCOOH)” value under setting [1] is “I-A-Q4-123: log P (HCOOH): 4.41”.

Turning to `Cc1cc(-n2nc(C(F)(F)Oc3ccc(Cl)cc3Cl)c(-c3cc(Cl)cc(C(F)(F)F)c3)c2N)ccc1C(=O)NCC(F)(F)C(F)F` [I-A-Q2-295], the “log P (HCOOH)” value (HCOOH) is “I-A-Q2-295: log P (HCOOH): 5.27”.

For the molecule `Cc1cc(-n2nc(C(F)(F)F)c(-c3cc(Cl)cc(Cl)c3)c2N)ccc1C(=O)N(Cc1ccccn1)C1CC1` [I-A-Q2-111], the “log P (HCOOH)” value (HCOOH) is listed as “I-A-Q2-111: log P (HCOOH): 4.17”.

Turning to `CC(NC(=O)c1ccc(-n2nc(C(F)(F)F)c(-c3cccc(Cl)c3)c2N)cc1)c1ccccn1` (stereo not shown) [I-A-Q2-087], the “log P (HCOOH)” value (HCOOH) is recorded as “I-A-Q2-087: log P (HCOOH): 2.80”.

Regarding `Cc1cc(-n2nc(C(F)(F)F)c(-c3ccc(Cl)c(Cl)c3)c2N)ccc1C(=O)NC(C)C(F)(F)F` (stereo not shown) [I-A-Q2-019], the “log P (HCOOH)” value (HCOOH) is recorded as “I-A-Q2-019: log P (HCOOH): 4.57”.

Turning to `Cc1nc(CNC(=O)c2ccc(-n3nc(C(F)(F)F)c(-c4cc(Cl)cc(Cl)c4)c3N)cc2C)no1` [I-A-Q2-059], the “log P (HCOOH)” value (HCOOH) is listed as “I-A-Q2-059: log P (HCOOH): 3.63”.

Regarding `Cc1cc(-n2nc(C(F)(F)F)c(-c3cc(Cl)cc(Cl)c3)c2N)ccc1C(=O)NC(C)C` [I-A-Q2-229], the “log P (HCOOH)” value (HCOOH) is listed as “I-A-Q2-229: log P (HCOOH): 4.05”.

As for `Cc1cc(-n2nc(C(F)(F)F)c(-c3cc(Cl)cc(Cl)c3)c2[S+](C)[O-])ccc1C(=O)NCC(F)(F)C(F)F` (single isomer, unassigned) [I-A-Q2-283], the “log P (HCOOH)” value (HCOOH) is recorded as “I-A-Q2-283: log P (HCOOH): 4.12”.

`CC(NC(=O)c1ccc(-n2nc(C(F)(F)F)c(-c3ccc(F)c(F)c3)c2N)cc1)C(F)(F)F` (stereo not shown) [I-A-Q2-175]: the “log P (HCOOH)” value (HCOOH) is given as “I-A-Q2-175: log P (HCOOH): 3.47”.

Regarding `Cc1cc(-n2nc(C(F)(F)F)c(-c3ccc(Cl)cc3Cl)c2N)ccc1C(=O)NCc1ncccn1` [I-A-Q2-411], the “log P (HCOOH)” value (HCOOH) is reported as “I-A-Q2-411: log P (HCOOH): 3.17”.

On to `Cc1nn(-c2ccc(-n3cncn3)c(C#N)c2)c(N)c1-c1ccc(F)cc1Cl` [I-A-Q1-052], for which the “log P (HCOOH)” value under setting [2] is listed as “I-A-Q1-052: log P (HCOOH): 2.43”.

In the case of `Cc1cc(-n2nc(C(F)(F)F)c(-c3ccc(Cl)c(F)c3)c2N)ccc1C(=O)NCC(F)(F)C(F)F` [I-A-Q2-310], the “log P (HCOOH)” value (HCOOH) is on record as “I-A-Q2-310: log P (HCOOH): 3.70”.

For `Cc1cc(-n2nc(C)c(-c3cc(F)ccc3F)c2N)ccc1C(=O)NCc1ccccn1` [I-A-Q2-372], the “log P (HCOOH)” value (HCOOH) was “I-A-Q2-372: log P (HCOOH): 1.61”.

Consider `Cc1cc(-n2nc(C(F)(F)F)c(-c3cc(Cl)cc(Cl)c3)c2N)ccc1C(=O)NCC1CC1` [I-A-Q2-220], for which the “log P (HCOOH)” value (HCOOH) is “I-A-Q2-220: log P (HCOOH): 4.11”.

In the case of `Nc1c(-c2ccc(Cl)c(F)c2)c(C(F)(F)F)nn1-c1ccc(C(=O)O)cc1` [I-A-Q4-093], under setting [1], the “log P (HCOOH)” value is “I-A-Q4-093: log P (HCOOH): 3.39”.

For the molecule `Cc1cc(-n2nc(C(C)C)c(-c3ccc(Cl)cc3)c2N)ccc1C(=O)NCc1ccccn1` [I-A-Q2-378], the “log P (HCOOH)” value (HCOOH) is recorded as “I-A-Q2-378: log P (HCOOH): 2.61”.

Regarding `Cc1cc(C)cc(-c2c(C(F)(F)F)nn(-c3ccc(C(=O)NC(C)C(F)(F)F)cc3)c2N)c1` (stereo not shown) [I-A-Q2-178], the “log P (HCOOH)” value (HCOOH) was “I-A-Q2-178: log P (HCOOH): 3.89”.

Consider `CSc1c(-c2cc(Cl)cc(Cl)c2)c(C(F)(F)F)nn1-c1ccc(C(=O)NCc2ccccn2)c(C)c1` [I-A-Q2-028], for which, for the setting “HCOOH”, the “log P (HCOOH)” value is “I-A-Q2-028: log P (HCOOH): 4.35”.

As to `N#Cc1cc(-n2nc(C(F)(F)F)c(-c3cc(F)c(F)c(F)c3)c2N)ccc1-n1cncn1` [I-A-Q1-041], the “log P (HCOOH)” value under setting [2] was “I-A-Q1-041: log P (HCOOH): 3.19”.

As for `Cc1cc(-n2nc(C(F)(F)F)c(-c3cc(F)c(F)c(F)c3)c2N)ccc1C(=O)NCc1ccccn1` [I-A-Q2-358], the “log P (HCOOH)” value (HCOOH) is on record as “I-A-Q2-358: log P (HCOOH): 2.80”.

On to `Cc1cc(-n2nc(C(F)(F)F)c(-c3c(F)cc(F)cc3F)c2N)ccc1C(=O)NCc1ccccn1` [I-A-Q2-350], for which the “log P (HCOOH)” value (HCOOH) is reported as “I-A-Q2-350: log P (HCOOH): 2.34”.

`CNC(=O)c1ccc(-n2nc(C(F)(F)F)c(-c3cc(Cl)cc(Cl)c3)c2N)cc1C` [I-A-Q2-013]: for the setting “HCOOH”, the “log P (HCOOH)” value is listed as “I-A-Q2-013: log P (HCOOH): 3.59”.

With `Cc1cc(-n2nc(C(F)(F)F)c(-c3cc(Cl)cc(Cl)c3)c2N)ccc1C(=O)NCc1ccncc1` [I-A-Q2-212], under “HCOOH”, the “log P (HCOOH)” value is “I-A-Q2-212: log P (HCOOH): 2.27”.

Consider `Cc1cc(-n2nc(C(F)(F)F)c(-c3cc(Cl)cc(Cl)c3)c2N)ccc1C(=O)NCc1ccc(C(F)(F)F)nc1` [I-A-Q2-060], for which the “log P (HCOOH)” value (HCOOH) is recorded as “I-A-Q2-060: log P (HCOOH): 4.34”.

In the case of `Cc1cc(-n2nc(C(F)(F)F)c(-c3cc(Cl)cc(Cl)c3)c2N)ccc1C(=O)O` [I-A-Q4-010, 4-[5-Amino-4-(3,5-dichlorophenyl)-3-trifluoromethylpyrazol-1-yl]-2-methylbenzoic acid], the chromatographic logP (HPLC, reversed-phase C18, mobile phase with formic acid, read-out: log P (HCOOH)) is 4.04.

With `Nc1c(-c2cc(Cl)cc(Cl)c2)c(C(F)(F)F)nn1-c1ccc(CNC(=O)C2CC2)c(Cl)c1` [I-A-Q3-022], the “log P (HCOOH)” value under setting [2] is on record as “I-A-Q3-022: log P (HCOOH): 4.12”.

In the case of `Nc1c(-c2cc(Cl)cc(Cl)c2)c(C(F)(F)F)nn1-c1ccc(C(=O)NCc2ccc(Cl)nc2)cc1` [I-A-Q2-148], the “log P (HCOOH)” value (HCOOH) is recorded as “I-A-Q2-148: log P (HCOOH): 4.12”.

As for `N#Cc1ccc(-c2c(C(F)(F)F)nn(-c3ccc(Cl)cn3)c2N)cc1` [I-A-Q4-045], the “log P (HCOOH)” value under setting [1] was “I-A-Q4-045: log P (HCOOH): 4.11”.

For the molecule `N#Cc1cc(-n2nc(C(F)(F)F)c(-c3cc(Cl)cc(Cl)c3)c2N)ccc1-n1nc(C(F)(F)F)nc1N` [I-A-Q1-093], the “log P (HCOOH)” value under setting [2] was “I-A-Q1-093: log P (HCOOH): 4.00”.

In the case of `Cc1cc(-n2nc(C(F)(F)F)c(-c3cc(Cl)cc(Cl)c3)c2N)ccc1C(=O)NC1CCOCC1` [I-A-Q2-250], where the note is “HCOOH”, the “log P (HCOOH)” value was “I-A-Q2-250: log P (HCOOH): 3.68”.

In the case of `Cc1cc(-n2nc(C(F)(F)F)c(-c3cc(Cl)cc(Cl)c3)c2N)ccc1C(=O)NCCOC(C(F)(F)F)C(F)(F)F` [I-A-Q2-048], the “log P (HCOOH)” value (HCOOH) is given as “I-A-Q2-048: log P (HCOOH): 4.70”.

Take `Cc1nn(-c2ccc(Cl)cn2)c(N)c1-c1cc(F)ccc1F` [I-A-Q4-033]: the “log P (HCOOH)” value under setting [1] is given as “I-A-Q4-033: log P (HCOOH): 3.84”.

`Cc1cc(-n2nc(C(F)(F)F)c(-c3cc(Cl)cc(Cl)c3)c2N)ccc1C(=O)NCC(F)(F)F` [I-A-Q2-014]: the “log P (HCOOH)” value (HCOOH) is recorded as “I-A-Q2-014: log P (HCOOH): 4.34”.

`Cc1cc(-n2nc(C(F)(F)F)c(-c3cc(Cl)cc(Cl)c3)c2N)ccc1C(=O)NCC(F)(F)C(F)F` [I-A-Q2-035]: the “log P (HCOOH)” value (HCOOH) is reported as “I-A-Q2-035: log P (HCOOH): 4.23”.

In the case of `CNC(=O)c1ccc(-n2nc(C(F)(F)F)c(-c3cc(Cl)cc(Cl)c3)c2N)cc1` [I-A-Q2-193], the “log P (HCOOH)” value (HCOOH) is recorded as “I-A-Q2-193: log P (HCOOH): 3.42”.

Turning to `Cc1cc(-n2nc(C(F)(F)F)c(-c3cc(Cl)cc(Cl)c3)c2N)ccc1C(=O)NC1CC1` [I-A-Q2-228], for the setting “HCOOH”, the “log P (HCOOH)” value was “I-A-Q2-228: log P (HCOOH): 3.78”.

Turning to `Cc1cc(-n2nc(C)c(-c3ccc(Cl)cc3)c2N)ccc1C(=O)NCC(F)(F)C(F)F` [I-A-Q2-330], the “log P (HCOOH)” value (HCOOH) is given as “I-A-Q2-330: log P (HCOOH): 3.12”.

Regarding `Nc1c(-c2ccc(F)c(F)c2)c(C(F)(F)F)nn1-c1ccc(C(=O)O)cc1` [I-A-Q4-092], the “log P (HCOOH)” value under setting [1] is listed as “I-A-Q4-092: log P (HCOOH): 3.06”.
